What was measured:
[1] = test system: spontaneous locomotor activity; experiment: Spontaneous locomotor activity (sLMA), intravenous administration; assay type: in vivo, Male SD rats; settings: i.v. 2 mg/kg, 90 min recording, vs vehicle
Method: Male SD rats were intravenously administered with PRX-002(−) (2 mg/kg) and prodrug PRX-P4-003 [(25.8 mg/kg, equivalent to 10 mg/kg of PRX-002 (−)], and vehicle just before sLMA test.
Vehicle was: 10% PEG 400 (v/v)+30% (v/v) of (50% w/v) Hydroxypropyl-ß-cyclodextrin in water+60% (v/v) sterile water for injection (SWFI): 1 ml/kg volume.
PRX-P4-003 solution was: 25.8 mg/ml PRX-P4-003 (25.8 mg/kg: equivalent to 10 mg/ml active drug, i.v. @volume of 1 ml/kg). 42.3 mg PRX-P4-003 was added to vehicle 1.639 ml, vortexed for 30 min under room temperature to get a uniform suspension solution, suspension solution was continuously stirred during dosage.
The PRX-P4-002(−) solution was: 2 mg/ml PRX-P4-002(−) (2 mg/kg, i.v.@volume of 1 ml/kg). 4.5 mg PRX-002(−) was added to 2.25 ml Vehicle, vortexed for 30 min under room temperature to get a clear solution, the solution was continuously stirred during dosage.
Rat was placed at the center of test chamber for the 90 min sLMA video recording. (n=3/group).

[2] = Single dose intravenous PK study in male Sprague Dawley rats (plasma by LC-MS/MS); assay type: in vivo; settings: mean; for Plasma concentration of PRX-002 (−) Isomer: PRX-002 (−) Isomer IV 2 mg/kg b.w.
How it was run: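 Adult male Sprague Dawley rats (8-10 weeks) received IV bolus prodrug at 2 mg/kg PRX-002-equivalent unless specified, with 10 or 15 mg/kg in some studies; formulations in PEG 400/HPβCD/water (±DMSO), freshly prepared. Retro-orbital K2EDTA plasma sampled over 24 h; fencamfamine quantified by LC-MS/MS, AUC versus unconjugated fencamfamine.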

SMILES: CCN[C@@H]1[C@@H]2CC[C@@H](C2)[C@H]1c1ccccc1 [PRX-002 (−) Isomer, (1R,2R,3S,4S)—N-Ethyl-3-phenylbicyclo[2.2.1]heptan-2-amine, reference compound]
- Spontaneous locomotor activity (sLMA): total traveling distance and duration [1]: significantly increased sLMA
- Plasma concentration of PRX-002 (−) Isomer ([2]; 0.08 h): 142.01
- Plasma concentration of PRX-002 (−) Isomer ([2]; 0.25 h): 112.59
- Plasma concentration of PRX-002 (−) Isomer ([2]; 0.50 h): 81.21
- Plasma concentration of PRX-002 (−) Isomer ([2]; 1.00 h): 58.82
- Plasma concentration of PRX-002 (−) Isomer ([2]; 2.00 h): 53.05
- Plasma concentration of PRX-002 (−) Isomer ([2]; 4.00 h): 16.55
- Plasma concentration of PRX-002 (−) Isomer ([2]; 6.00 h): 0.00
- Plasma concentration of PRX-002 (−) Isomer ([2]; 24.00 h): 0.00
- AUC% extrap of PRX-002 (−) Isomer ([2]; PRX-002 (−) Isomer IV 2 mg/kg): 14.056 ± 5.0710%
- AUC(0-inf) ([2]; male, Sprague Dawley, rat, plasma, iv, 2 mg/kg, PRX-002 (−) Isomer IV 2 mg/kg, read-out: AUCinf of PRX-002 (−) Isomer): 256 ± 44.3 ng·h/mL
- AUC(0-t) ([2]; male, Sprague Dawley, rat, plasma, iv, 2 mg/kg, PRX-002 (−) Isomer IV 2 mg/kg, read-out: AUClast of PRX-002 (−) Isomer): 219 ± 23.9 ng·h/mL
- clearance ([2]; male, Sprague Dawley, rat, plasma, iv, 2 mg/kg, PRX-002 (−) Isomer IV 2 mg/kg, read-out: CL of PRX-002 (−) Isomer): 133 ± 21 mL/min/kg
- Cmax ([2]; male, Sprague Dawley, rat, plasma, iv, 2 mg/kg, PRX-002 (−) Isomer IV 2 mg/kg, read-out: Cmax of PRX-002 (−) Isomer): 143 ± 1.75 ng/mL
- MRT last ([2]; male, Sprague Dawley, rat, plasma, iv, 2 mg/kg, PRX-002 (−) Isomer IV 2 mg/kg, read-out: MRTlast of PRX-002 (−) Isomer): 1.33 ± 0.118 h
- half-life ([2]; male, Sprague Dawley, rat, plasma, iv, 2 mg/kg, PRX-002 (−) Isomer IV 2 mg/kg, read-out: T1/2 of PRX-002 (−) Isomer (converted)): 1.51 ± 0.223 h
- Vd ([2]; male, Sprague Dawley, rat, plasma, iv, 2 mg/kg, PRX-002 (−) Isomer IV 2 mg/kg, read-out: Vss of PRX-002 (−) Isomer): 15.7 ± 0.339 L/kg
- Tmax ([2]; male, Sprague Dawley, rat, plasma, PRX-002 (−) Isomer IV 2 mg/kg, read-out: Tmax of PRX-002 (−) Isomer): 8.22 ± 5.88 min

— patent publication US10662146B2, “Prodrugs of fencamfamine” (Praxis Bioresearch, LLC, priority 2015, dated 2020)
